In general, IC50 refers to the midpoint of a concentration-inhibition curve. High values mean a need for much substance, low ones inhibition by little substance.

Test [1] relates to CCRF-CEM. As to the kind of experiment: Percentage increase in caspase-3 activity of CCRF-CEM human T-leukemia cells. It is filed as functional.
The test system of test [2] is CCRF-CEM. As to the kind of experiment: In vitro growth inhibitory effect in human T-cell acute leukemia cells CCRF-CEM. It is filed as functional, cell-based.

Molecules are shown by their SMILES.

As for `CCCCCCCCCCCCCCc1c(O)nc(O)nc1CC`, the Increase in the test with CCRF-CEM [1] came to 8.1%. Moreover, the half-maximal inhibitory concentration (IC50) with CCRF-CEM [2] was found to be 7.9 µM. In the case of `CCCCCCCCCCCCC/C=C/[C@@H](O)[C@H](CO)NC(C)=O`, the Increase in the test with CCRF-CEM [1] was 2.8%. In the test with CCRF-CEM [2], the midpoint of inhibition, the IC50, lay at 31.6 µM. In the test with CCRF-CEM [1], `CCCCCCCCCCCCCCc1c(O)nc(S)nc1CC` had an Increase of 5%. Half-maximal inhibition in the test on CCRF-CEM [2] (IC50) was put at 1.7 µM.

The compound `CCCCCCCCCCCCCCc1nc(S)nc(O)c1CC` displayed an Increase in the test on CCRF-CEM [1] of 1.2%. In the test on CCRF-CEM [1], `CCCCCCCCCCCCCCc1nc(O)nc(O)c1CC` showed an Increase of 1.7%.

The record behind these values is ChEMBL document CHEMBL1134273, “Design, synthesis, and characterization of the antitumor activity of novel ceramide analogues” (J Med Chem, 2001).
